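Test compounds were applied to cells in 96-well plates for 48 hours at 5 doses. GI50 marks 50% less growth. TGI: concentration producing complete growth inhibition.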
How the values were obtained:
Test in all cases: inhibition of tumour cell growth, NCI panel, 48 h
U251 CNS = tested on: U251 CNS
SK-MEL-5 melanoma = tested on: SK-MEL-5 melanoma
NCI-H522 lung = tested on: NCI-H522 lung
OVCAR-8 ovarian = tested on: OVCAR-8 ovarian
HOP-62 NSCLC = tested on: HOP-62 NSCLC
SK-OV-3 ovarian = tested on: SK-OV-3 ovarian
UO-31 renal = tested on: UO-31 renal
T-47D breast = tested on: T-47D breast
CAKI-1 renal = tested on: CAKI-1 renal
UACC-62 melanoma = tested on: UACC-62 melanoma
MDA-MB-231 breast = tested on: MDA-MB-231 breast
SF-268 CNS = tested on: SF-268 CNS
A549 NSCLC = tested on: A549 NSCLC
SN12C renal = tested on: SN12C renal
NCI-H460 lung = tested on: NCI-H460 lung
RXF 393 renal = tested on: RXF 393 renal
NCI-H23 lung = tested on: NCI-H23 lung
K-562 leukemia = tested on: K-562 leukemia
786-0 renal = tested on: 786-0 renal
NCI-H226 lung = tested on: NCI-H226 lung
OVCAR-4 ovarian = tested on: OVCAR-4 ovarian
SF-539 CNS = tested on: SF-539 CNS
LOX IMVI melanoma = tested on: LOX IMVI melanoma
NCI/ADR-RES ovarian = tested on: NCI/ADR-RES ovarian
HS 578T breast = tested on: HS 578T breast
SK-MEL-28 melanoma = tested on: SK-MEL-28 melanoma
SF-295 CNS = tested on: SF-295 CNS
MCF7 breast = tested on: MCF7 breast
HOP-92 NSCLC = tested on: HOP-92 NSCLC
TK-10 renal = tested on: TK-10 renal
BT-549 breast = tested on: BT-549 breast
PC-3 prostate = tested on: PC-3 prostate
MALME-3M melanoma = tested on: MALME-3M melanoma
SNB-19 CNS = tested on: SNB-19 CNS
M14 melanoma = tested on: M14 melanoma
HL-60(TB) leukemia = tested on: HL-60(TB) leukemia
SW-620 colon = tested on: SW-620 colon
HCT-116 colon = tested on: HCT-116 colon
IGROV1 ovarian = tested on: IGROV1 ovarian
MOLT-4 leukemia = tested on: MOLT-4 leukemia
HT29 colon = tested on: HT29 colon
SNB-75 CNS = tested on: SNB-75 CNS
DU-145 prostate = tested on: DU-145 prostate
EKVX NSCLC = tested on: EKVX NSCLC
HCT-15 colon = tested on: HCT-15 colon
A498 renal = tested on: A498 renal
ACHN renal = tested on: ACHN renal
COLO 205 colon = tested on: COLO 205 colon
CCRF-CEM leukemia = tested on: CCRF-CEM leukemia
SK-MEL-2 melanoma = tested on: SK-MEL-2 melanoma
RPMI-8226 leukemia = tested on: RPMI-8226 leukemia
KM12 colon = tested on: KM12 colon
MDA-MB-435 = tested on: MDA-MB-435
OVCAR-5 ovarian = tested on: OVCAR-5 ovarian
HCC-2998 colon = tested on: HCC-2998 colon
SR leukemia = tested on: SR leukemia
UACC-257 melanoma = tested on: UACC-257 melanoma

Work on `CCN1CCN(c2ccc(NC(=O)Nc3ccc4c(ccn4-c4ccnc(C(=O)NC)c4)c3)cc2C(F)(F)F)CC1` yielded a GI50 (U251 CNS) of 1.64 µM, a TGI (U251 CNS) of 3.53 µM and a GI50 (SK-MEL-5 melanoma) of 2.52 µM. The TGI (SK-MEL-5 melanoma) was 4.56 µM, the GI50 (NCI-H522 lung) was over 14.3 µM and the TGI (NCI-H522 lung) was over 14.3 µM. For the same compound, the GI50 (OVCAR-8 ovarian) was 2.62 µM, the TGI (OVCAR-8 ovarian) was 5.49 µM and the GI50 (HOP-62 NSCLC) was 2.13 µM. For the same compound, the TGI (HOP-62 NSCLC) was 4.3 µM, the GI50 (SK-OV-3 ovarian) was over 14.3 µM and the TGI (SK-OV-3 ovarian) was over 14.3 µM. The GI50 (UO-31 renal) was 2.23 µM, the TGI (UO-31 renal) was 4.21 µM and the GI50 (T-47D breast) was over 14.3 µM. The TGI (T-47D breast) was over 14.3 µM, the GI50 (CAKI-1 renal) was 2.68 µM and the TGI (CAKI-1 renal) was 5.07 µM. It also gave a GI50 (UACC-62 melanoma) of 2.34 µM, a TGI (UACC-62 melanoma) of 4.55 µM and a GI50 (MDA-MB-231 breast) of 2.53 µM. It also gave a TGI (MDA-MB-231 breast) of 5.01 µM, a GI50 (SF-268 CNS) of 2.53 µM and a TGI (SF-268 CNS) of 5.66 µM. It also gave a GI50 (A549 NSCLC) of 2.28 µM, a TGI (A549 NSCLC) of 4.5 µM and a GI50 (SN12C renal) of over 14.3 µM. It also gave a TGI (SN12C renal) of over 14.3 µM, a GI50 (NCI-H460 lung) of 2.59 µM and a TGI (NCI-H460 lung) of 5.03 µM. For the same compound, the GI50 (RXF 393 renal) was 1.42 µM, the TGI (RXF 393 renal) was 3.58 µM and the GI50 (NCI-H23 lung) was 2.08 µM. It also gave a TGI (NCI-H23 lung) of 4.23 µM, a GI50 (K-562 leukemia) of 0.793 µM and a TGI (K-562 leukemia) of 4.14 µM. The GI50 (786-0 renal) was 1.73 µM, the TGI (786-0 renal) was 3.63 µM and the GI50 (NCI-H226 lung) was over 14.3 µM. The TGI (NCI-H226 lung) was over 14.3 µM, the GI50 (OVCAR-4 ovarian) was 2.65 µM and the TGI (OVCAR-4 ovarian) was 5.86 µM. For the same compound, the GI50 (SF-539 CNS) was 1.63 µM, the TGI (SF-539 CNS) was 3.48 µM and the GI50 (LOX IMVI melanoma) was 2.21 µM. For the same compound, the TGI (LOX IMVI melanoma) was 4.22 µM, the GI50 (NCI/ADR-RES ovarian) was 3.08 µM and the TGI (NCI/ADR-RES ovarian) was 7.44 µM. The GI50 (HS 578T breast) was 2.5 µM, the TGI (HS 578T breast) was 13.7 µM and the GI50 (SK-MEL-28 melanoma) was 2.28 µM. The TGI (SK-MEL-28 melanoma) was 4.37 µM, the GI50 (SF-295 CNS) was 0.925 µM and the TGI (SF-295 CNS) was 2.85 µM. For the same compound, the GI50 (MCF7 breast) was 2.15 µM, the TGI (MCF7 breast) was 5.05 µM and the GI50 (HOP-92 NSCLC) was 1.55 µM. It also gave a TGI (HOP-92 NSCLC) of 3.44 µM, a GI50 (TK-10 renal) of 2.68 µM and a TGI (TK-10 renal) of 4.82 µM. For the same compound, the GI50 (BT-549 breast) was over 14.3 µM, the TGI (BT-549 breast) was over 14.3 µM and the GI50 (PC-3 prostate) was 2.34 µM. The TGI (PC-3 prostate) was 7.38 µM, the GI50 (MALME-3M melanoma) was 2.07 µM and the TGI (MALME-3M melanoma) was 4.22 µM. For the same compound, the GI50 (SNB-19 CNS) was 2.36 µM, the TGI (SNB-19 CNS) was 4.81 µM and the GI50 (M14 melanoma) was 2.35 µM. For the same compound, the TGI (M14 melanoma) was 4.36 µM, the GI50 (HL-60(TB) leukemia) was 2.66 µM and the TGI (HL-60(TB) leukemia) was 6.11 µM. The GI50 (SW-620 colon) was 2.5 µM, the TGI (SW-620 colon) was 4.79 µM and the GI50 (HCT-116 colon) was 2 µM. For the same compound, the TGI (HCT-116 colon) was 3.88 µM, the GI50 (IGROV1 ovarian) was 2.67 µM and the TGI (IGROV1 ovarian) was 5.61 µM. The GI50 (MOLT-4 leukemia) was 1.79 µM, the TGI (MOLT-4 leukemia) was 9.46 µM and the GI50 (HT29 colon) was 1.07 µM. For the same compound, the TGI (HT29 colon) was 3.22 µM, the GI50 (SNB-75 CNS) was 5.22 µM and the TGI (SNB-75 CNS) was over 14.3 µM. It also gave a GI50 (DU-145 prostate) of 2.59 µM, a TGI (DU-145 prostate) of 4.88 µM and a GI50 (EKVX NSCLC) of 2.27 µM. The TGI (EKVX NSCLC) was 4.47 µM, the GI50 (HCT-15 colon) was 1.04 µM and the TGI (HCT-15 colon) was 3.35 µM. The GI50 (A498 renal) was 13.5 µM, the TGI (A498 renal) was over 14.3 µM and the GI50 (ACHN renal) was 2.56 µM. The TGI (ACHN renal) was 4.55 µM, the GI50 (COLO 205 colon) was over 14.3 µM and the TGI (COLO 205 colon) was over 14.3 µM. For the same compound, the GI50 (CCRF-CEM leukemia) was 3.77 µM, the TGI (CCRF-CEM leukemia) was over 14.3 µM and the GI50 (SK-MEL-2 melanoma) was 12.6 µM. It also gave a TGI (SK-MEL-2 melanoma) of over 14.3 µM, a GI50 (RPMI-8226 leukemia) of 1.57 µM and a TGI (RPMI-8226 leukemia) of over 14.3 µM. It also gave a GI50 (KM12 colon) of 0.741 µM, a TGI (KM12 colon) of 2.85 µM and a GI50 (MDA-MB-435) of 2.46 µM. For the same compound, the TGI (MDA-MB-435) was 4.56 µM, the GI50 (OVCAR-5 ovarian) was 11.4 µM and the TGI (OVCAR-5 ovarian) was over 14.3 µM. For the same compound, the GI50 (HCC-2998 colon) was 2.47 µM, the TGI (HCC-2998 colon) was 4.54 µM and the GI50 (SR leukemia) was 0.644 µM. The TGI (SR leukemia) was 3.22 µM, the GI50 (UACC-257 melanoma) was 2.45 µM and the TGI (UACC-257 melanoma) was 4.68 µM.

Reference: PubChem BioAssay (NCI)
